Consider 4 compounds from patent US6730665B1, “Treatment of bone cancer” (Mayo Foundation for Medical Education and Research, priority 1999, dated 2004).

Molecules are shown by their SMILES.

Assay [1] relates to osteosarcoma cells and immortalized cell lines. The assay is described as follows: Cell survival, summary statement. The note with it: for impact on cell survival (in words): 2 μM, 72 hours; for reduction of cell survival: 20 μM. The class given is cell-based. The protocol:
(§1) MG63 and TE85 human osteosarcoma cells, and ROS 17/2.8 rat osteosarcoma cells were grown in DMEM/F12 phenol-red free medium containing 10% charcoal-stripped fetal bovine serum (FBS) and supplemented with 100 units/ml penicillin, 100 μg/ml streptomycin. Cell were incubated at 37° C. under 5% CO2 in air. Cells were plated at 5×10^4 cells per well into 24 well plates containing 1 ml of medium per well. After allowing the cells to attach overnight, media in the wells were replaced with fresh 1 ml medium. Human fetal osteoblasts (hFOB) cells and hFOB cells overexpressing estrogen receptor-alpha (hFOB-ERα) and estrogen receptor-beta (hFOB-ERβ) were grown in DMEM/F12 medium containing FBS, penicillin, streptomycin and Geneticin (300 μg/mL). The laboratory of Dr. B. L. Riggs at Mayo Clinic provided primary human osteoblast (HOB) cells. HOB cells were basically established from cancellous bone obtained as waste from orthopedic procedures and cultured as explants to generate the osteoblast-like monolayers as described by Borke et al., J. Clin. Endocrinol. Metab., 1988, 67:1299-1304. Human FOB cells and hFOB cells stably transfected with estrogen receptors (ERs) were maintained at 34° C., while all other cells were incubated at 37° C. under 5% CO2 in air.
(§2) Estrogen metabolites were diluted 1000 fold to give the final required concentrations in each well, and maintained for 72 hrs. The metabolites 2ME, 2OHE, and E2 were purchased from Sigma Chemical Company (St. Louis, Mo.). Stock solutions for each metabolite were made in 95% ethanol. Cell growth was measured by taking the viable cell count. At the end of metabolite treatment, cells were harvested, stained with trypan blue, and counted under a light microscope.

Assay [2] deals with MG63 human osteosarcoma cells. As to the kind of experiment: Cell survival, viable cell count with trypan blue. It is filed as cell-based. As to conditions: for cell survival: 20 and 50 μM. As for the experimental part: as §1, §2
MG63 cells were treated with 0, 2, and 10 μM concentrations of 2ME in the presence or absence of 100 nM ICI for 72 hours. The cells were harvested and the viable cell counts were taken after staining with trypan blue.

Regarding `COc1cc2c(cc1O)CC[C@@H]1[C@@H]2CC[C@]2(C)C(=O)CC[C@@H]12` [2-methoxyestrone], the “impact on cell survival (in words)” value in assay [1] is recorded as “minimal impact”.

For the compound `C[C@]12CC[C@@H]3c4cc(O)c(O)cc4CC[C@H]3[C@@H]1CC[C@@H]2O` [2OHE, 2-hydroxyestradiol], in assay [2] (2 μM, 72 hrs), the “impact on cell survival (in words)” value is listed as “little impact”. In assay [2] (72 hrs), the cell survival result is listed as “about 40%”. In addition, in assay [1], the “impact on cell survival (in words)” value is “minimal impact” and the “reduction of cell survival” value is recorded as 60%.

For the compound `C[C@]12CC[C@@H]3c4ccc(O)cc4CC[C@H]3[C@@H]1CC[C@@H]2O` [E2, 17β-estradiol], the “impact on cell survival (in words)” value in assay [2] (2 μM, 72 hrs) is on record as “little impact”; in assay [1], “minimal impact”. Moreover, the cell survival in assay [2] (72 hrs) was about 50%. Moreover, the “reduction of cell survival” value in assay [1] is given as 50%.

Take `C[C@]12CC[C@@H]3c4ccc(O)cc4C[C@@H](CCCCCCCCC[S+]([O-])CCCC(F)(F)C(F)(F)F)[C@H]3[C@@H]1CC[C@@H]2O` (stereo partly shown) [ICI]: the “impact on cell survival (in words)” value in assay [2] (100 nM ICI alone, 72 hours) is given as “little impact”.
